{"source": "paper PMC5874699", "about": "“Antimicrobial and Antibiofilm Activity of UP-5, an Ultrashort Antimicrobial Peptide Designed Using Only Arginine and Biphenylalanine” (Pharmaceuticals, 2018)", "key": {"S. aureus (ATCC 29213)": {"test_system": "S. aureus (ATCC 29213)", "assay": "Broth microdilution checkerboard, UP-5 with antibiotics", "format": "cell-based, Staphylococcus aureus", "settings": "S. aureus ATCC 29213, checkerboard, triplicate", "text": "(§1) All bacterial susceptibility, biofilm, and synergistic assays of peptides, antibiotics, and peptides-antibiotics combinations used bacterial strains obtained from the American Type Tissue Culture Collection (ATCC, Manassas, VA, USA) that states the mechanism of resistance for each strain according to ATCC number. Gram-positive bacteria were represented by five strains, the wild type strain Staphylococcus aureus (ATCC 29213) and methicillin-resistant S. aureus (MRSA) (ATCC 33591) in addition to clinically isolated strains S. aureus (ATCC BAA-41& 43300) and Enterococcus faecalis (ATCC BAA-2316). The Gram-negative bacteria strains were represented by wild type strains of Escherichia coli (ATCC 25922 & 35218) and Pseudomonas aeruginosa (ATCC 27853) as well as the clinically isolated multidrug-resistant strain P. aeruginosa (ATCC BAA-2114). The bacteria were cultured onto Muller Hinton Agar (Scharlab, S.L, Barcelona, Spain). Mueller Hinton Broth (Oxoid Ltd., Basingstoke, UK) was used to prepare all bacterial suspensions and to dissolve the peptides and the antibiotics. The assay was performed in sterile 96-well polypropylene microtiter plates.\n(§2) According to the broth microdilution checkerboard technique, the MIC and MBC values of peptide-antibiotics combinations against wild type and multidrug resistant bacterial strains were determined. Serial concentrations of peptide and each antibiotic were prepared in the range of 0.005–100 μM. In each well of a 96-well microtiter plate, 25 μL of each peptide concentration were added to 25 μL of each antibiotic concentration which is followed by adding 50 μL of diluted bacterial suspension (10^6 CFU/mL) to each well. The prepared concentrations of peptide and each antibiotic were arranged into rows and columns, respectively, in a 96-well microtiter plate according the checkerboard technique. Then as described previously (see Section 2.4.1), the procedure was followed. All MIC and MBC determinations of all assays were made in triplicate.\n(§3) The fractional inhibitory concentration (FIC) is defined as the inhibitory concentration of the antimicrobial combination divided by that of the single antimicrobial component. To calculate FIC index for peptide-antibiotic combinations, the following equation was used:(1) FIC index=MIC of drug X in combination/MIC of drug X alone+MIC of drug Y in combination/MIC of drug Y alone\n(§4) The FIC indices were interpreted as follows: ≤0.5: synergistic activity, 0.5–1: additive activity, 1–4 indifferent, >4: antagonism. Interpretation and assessment of the FIC indices were performed according to the broth microdilution checkerboard technique."}, "S. aureus (ATCC 43300) [1]": {"test_system": "S. aureus (ATCC 43300)", "assay": "Broth microdilution checkerboard, UP-5 with antibiotics", "format": "cell-based, Staphylococcus aureus", "settings": "S. aureus ATCC 43300, checkerboard, triplicate", "text": "as §1, §2, §3, §4"}, "S. aureus (ATCC BAA-41) [2]": {"test_system": "S. aureus (ATCC BAA-41)", "assay": "Broth microdilution checkerboard, UP-5 with antibiotics", "format": "cell-based, Staphylococcus aureus", "settings": "S. aureus ATCC BAA-41, checkerboard, triplicate", "text": "as §1, §2, §3, §4"}, "S. aureus (ATCC 33591)": {"test_system": "S. aureus (ATCC 33591)", "assay": "Broth microdilution checkerboard, UP-5 with antibiotics", "format": "cell-based, Staphylococcus aureus", "settings": "S. aureus ATCC 33591, checkerboard, triplicate", "text": "as §1, §2, §3, §4"}, "[3]": {"test_system": "P. aeruginosa (ATCC BAA-2114)", "assay": "Broth microdilution checkerboard, UP-5 with antibiotics", "format": "cell-based, Pseudomonas aeruginosa", "settings": "P. auroginosa ATCC BAA-2114, checkerboard, triplicate", "text": "as §1, §2, §3, §4"}, "S. aureus (ATCC 43300) [4]": {"test_system": "S. aureus (ATCC 43300)", "format": "cell-based, Staphylococcus aureus", "settings": "ATCC 43300, 24 h", "text": "as §1\n(§5) All bacterial susceptibility assays were conducted according to the microbroth dilution method outlined by the Clinical and Laboratory Standards Institute (CLSI) guidelines.\n(§6) Briefly, pre-sterilized MHB was used as a growth medium for organisms obtained from stock media with glycerol. Bacterial cells were grown overnight in MHB and diluted to 10^6 CFU/mL in the same medium prior to use. For peptide, serial concentrations in the range of 0.5–100 μM were prepared. Then, 50 μL of each peptide concentration and 50 µL of diluted bacterial suspension were added to each well of a 96-well microtiter plate. Peptide solutions were prepared by dissolving the peptide in sterile MHB. Then, the plates were incubated overnight in a humidified atmosphere, and at 37 °C. Bacterial growth was determined by measuring the optical density (OD) at λ = 600 nm using an ELISA plate reader (Epoch, BioTek, Winooski, VT, USA) and the minimum inhibitory concentration (MIC) was determined.\n(§7) As described in the previous section, the MIC and MBC values of antibiotics employed in this study were determined against subjected bacterial strains via preparing different concentrations of each antibiotic."}, "S. aureus (ATCC BAA-41) [5]": {"test_system": "S. aureus (ATCC BAA-41)", "format": "cell-based, Staphylococcus aureus", "settings": "ATCC BAA-41, 24 h", "text": "as §1, §5, §6, §7"}, "[6]": {"test_system": "P. aeruginosa (ATCC BAA-2114)", "format": "cell-based, Pseudomonas aeruginosa", "settings": "ATCC BAA-2114, 24 h", "text": "as §1, §5, §6, §7"}, "[7]": {"settings": "UP-5 in combination with Ampicillin"}, "[8]": {"settings": "UP-5 in combination with Chloramphenicol"}, "[9]": {"settings": "UP-5 in combination with Erythromycin"}, "[10]": {"settings": "UP-5 in combination with Levofloxacin"}, "[11]": {"settings": "UP-5 in combination with Rifampicin"}}, "note": "Square brackets hold non-standard residues; d marks the D form. Peptide text beside a SMILES is read from it. Bip = N[C@@H](Cc1ccc(-c2ccccc2)cc1)C(=O)O", "data": [{"smiles": "N=C(N)NCCC[C@H](NC(=O)[C@H](Cc1ccc(-c2ccccc2)cc1)NC(=O)[C@H](CCCNC(=N)N)NC(=O)[C@H](Cc1ccc(-c2ccccc2)cc1)NC(=O)[C@@H](N)CCCNC(=N)N)C(=O)O", "note": "[UP-5] (H-R[Bip]R[Bip]R-OH)", "values": [{"measurement": "UP-5 MIC in Combination", "setting": "S. aureus (ATCC 29213); [7]", "value": 0.25, "unit": "µM"}, {"measurement": "UP-5 MIC in Combination", "setting": "S. aureus (ATCC 29213); [8]", "value": 2.5, "unit": "µM"}, {"measurement": "UP-5 MIC in Combination", "setting": "S. aureus (ATCC 29213); [9]", "value": 10, "unit": "µM"}, {"measurement": "UP-5 MIC in Combination", "setting": "S. aureus (ATCC 29213); [10]", "value": 0.125, "unit": "µM"}, {"measurement": "UP-5 MIC in Combination", "setting": "S. aureus (ATCC 29213); [11]", "value": 10, "unit": "µM"}, {"measurement": "UP-5 MIC in Combination", "setting": "S. aureus (ATCC 43300) [1]; [7]", "value": 7.5, "unit": "µM"}, {"measurement": "UP-5 MIC in Combination", "setting": "S. aureus (ATCC 43300) [1]; [8]", "value": 7.5, "unit": "µM"}, {"measurement": "UP-5 MIC in Combination", "setting": "S. aureus (ATCC 43300) [1]; [9]", "value": 7.5, "unit": "µM"}, {"measurement": "UP-5 MIC in Combination", "setting": "S. aureus (ATCC 43300) [1]; [10]", "value": 0.025, "unit": "µM"}, {"measurement": "UP-5 MIC in Combination", "setting": "S. aureus (ATCC 43300) [1]; [11]", "value": 5, "unit": "µM"}, {"measurement": "UP-5 MIC in Combination", "setting": "S. aureus (ATCC BAA-41) [2]; [7]", "value": 7.5, "unit": "µM"}, {"measurement": "UP-5 MIC in Combination", "setting": "S. aureus (ATCC BAA-41) [2]; [8]", "value": 7.5, "unit": "µM"}, {"measurement": "UP-5 MIC in Combination", "setting": "S. aureus (ATCC BAA-41) [2]; [9]", "value": 15, "unit": "µM"}, {"measurement": "UP-5 MIC in Combination", "setting": "S. aureus (ATCC BAA-41) [2]; [10]", "value": 15, "unit": "µM"}, {"measurement": "UP-5 MIC in Combination", "setting": "S. aureus (ATCC BAA-41) [2]; [11]", "value": 15, "unit": "µM"}, {"measurement": "UP-5 MIC in Combination", "setting": "S. aureus (ATCC 33591); [7]", "value": 1.25, "unit": "µM"}, {"measurement": "UP-5 MIC in Combination", "setting": "S. aureus (ATCC 33591); [8]", "value": 5, "unit": "µM"}, {"measurement": "UP-5 MIC in Combination", "setting": "S. aureus (ATCC 33591); [9]", "value": 0.125, "unit": "µM"}, {"measurement": "UP-5 MIC in Combination", "setting": "S. aureus (ATCC 33591); [10]", "value": 0.125, "unit": "µM"}, {"measurement": "UP-5 MIC in Combination", "setting": "S. aureus (ATCC 33591); [11]", "value": 0.125, "unit": "µM"}, {"measurement": "UP-5 MIC in Combination", "setting": "[3]; [7]", "value": 20, "unit": "µM"}, {"measurement": "UP-5 MIC in Combination", "setting": "[3]; [8]", "value": 10, "unit": "µM"}, {"measurement": "UP-5 MIC in Combination", "setting": "[3]; [9]", "value": 27.5, "unit": "µM"}, {"measurement": "UP-5 MIC in Combination", "setting": "[3]; [10]", "value": 20, "unit": "µM"}, {"measurement": "UP-5 MIC in Combination", "setting": "[3]; [11]", "value": 25, "unit": "µM"}, {"measurement": "MBC Value", "setting": "S. aureus (ATCC 43300) [4]", "value": 15, "unit": "µM"}, {"measurement": "MIC Value", "setting": "S. aureus (ATCC 43300) [4]", "value": 15, "unit": "µM"}, {"measurement": "MBC Value", "setting": "S. aureus (ATCC BAA-41) [5]", "value": 15, "unit": "µM"}, {"measurement": "MIC Value", "setting": "S. aureus (ATCC BAA-41) [5]", "value": 15, "unit": "µM"}, {"measurement": "MBC Value", "setting": "[6]", "value": 55, "unit": "µM"}, {"measurement": "MIC Value", "setting": "[6]", "value": 55, "unit": "µM"}]}]}
